Target: T1, fibrinogen receptor (GPIIb-IIIa) (Homo sapiens, UniProt P05106+P08514)
T1 construct: The lectin-retained GPIIb-IIIa was eluted with buffer A containing 10% dextrose; tissue Red Cross; host or cells: human platelets
Assay: Competitive binding to GPIIb-IIIa using [3H]-SK&F-107260 as RGD-type ligand
Conditions: read-out: Ki for inhibition of [3H]-SK&F 107260 binding

T1 sequence (P08514 32-887 limits assumed): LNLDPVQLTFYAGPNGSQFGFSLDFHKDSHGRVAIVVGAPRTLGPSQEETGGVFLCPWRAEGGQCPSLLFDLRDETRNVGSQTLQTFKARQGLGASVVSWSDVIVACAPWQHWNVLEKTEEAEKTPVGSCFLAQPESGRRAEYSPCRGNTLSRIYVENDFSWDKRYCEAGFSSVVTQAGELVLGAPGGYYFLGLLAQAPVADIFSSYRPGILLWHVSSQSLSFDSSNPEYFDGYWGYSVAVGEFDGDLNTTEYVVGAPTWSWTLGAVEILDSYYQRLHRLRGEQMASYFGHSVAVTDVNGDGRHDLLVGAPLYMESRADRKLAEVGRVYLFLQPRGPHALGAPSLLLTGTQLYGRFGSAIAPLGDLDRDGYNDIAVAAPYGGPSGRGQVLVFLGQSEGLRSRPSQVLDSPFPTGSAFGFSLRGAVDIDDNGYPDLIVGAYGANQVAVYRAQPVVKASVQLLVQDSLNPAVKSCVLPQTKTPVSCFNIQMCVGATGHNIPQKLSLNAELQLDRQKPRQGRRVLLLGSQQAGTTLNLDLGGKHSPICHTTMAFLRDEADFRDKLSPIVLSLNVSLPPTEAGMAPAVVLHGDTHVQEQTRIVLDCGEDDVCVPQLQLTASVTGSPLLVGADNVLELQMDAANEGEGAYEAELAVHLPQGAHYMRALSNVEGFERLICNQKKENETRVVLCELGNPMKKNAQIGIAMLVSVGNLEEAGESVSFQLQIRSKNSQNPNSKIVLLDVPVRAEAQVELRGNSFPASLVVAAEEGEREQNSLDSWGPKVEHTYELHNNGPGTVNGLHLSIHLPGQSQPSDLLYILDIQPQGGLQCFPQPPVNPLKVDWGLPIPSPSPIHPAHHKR
T1 sequence (P08514 891-1039 limits assumed): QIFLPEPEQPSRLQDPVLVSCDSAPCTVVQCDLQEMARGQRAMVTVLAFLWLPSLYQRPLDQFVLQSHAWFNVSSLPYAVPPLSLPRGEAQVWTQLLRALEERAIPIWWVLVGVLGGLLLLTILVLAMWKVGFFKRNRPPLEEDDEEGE
T1 sequence (P05106 27-788): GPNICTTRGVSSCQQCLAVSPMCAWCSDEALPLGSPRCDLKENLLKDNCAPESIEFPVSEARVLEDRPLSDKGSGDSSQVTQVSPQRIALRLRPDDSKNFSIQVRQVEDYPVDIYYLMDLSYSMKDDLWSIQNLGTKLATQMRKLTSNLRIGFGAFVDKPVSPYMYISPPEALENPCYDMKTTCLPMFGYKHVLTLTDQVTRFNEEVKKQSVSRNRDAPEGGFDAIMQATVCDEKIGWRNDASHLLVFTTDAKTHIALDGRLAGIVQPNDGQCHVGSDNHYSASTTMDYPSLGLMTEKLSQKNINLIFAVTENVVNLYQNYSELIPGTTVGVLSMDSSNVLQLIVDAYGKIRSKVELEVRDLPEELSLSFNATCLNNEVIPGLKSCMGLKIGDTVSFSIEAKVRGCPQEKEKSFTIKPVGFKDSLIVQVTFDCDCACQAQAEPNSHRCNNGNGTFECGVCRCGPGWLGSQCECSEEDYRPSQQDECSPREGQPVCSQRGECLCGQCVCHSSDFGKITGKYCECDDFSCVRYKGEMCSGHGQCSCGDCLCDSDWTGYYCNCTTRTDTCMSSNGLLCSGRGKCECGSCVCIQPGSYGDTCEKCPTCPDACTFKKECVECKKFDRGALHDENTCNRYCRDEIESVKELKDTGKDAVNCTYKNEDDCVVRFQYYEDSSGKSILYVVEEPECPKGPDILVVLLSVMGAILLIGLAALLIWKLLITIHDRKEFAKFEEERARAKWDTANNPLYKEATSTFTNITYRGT

Molecule `O=C(Nc1ccc(N2CCNCC2)cc1)C1CCN(C(C(=O)O)c2ccccc2)CC1` (stereo not shown) [Example 1, 4-[(4-(1-piperizinyl)phenyl)aminocarbonyl]-1-piperidine-1-phenylacetic Acid] has a Ki of roughly 3.5 nM.

Reference: US20010014682A1, “Fibrinogen receptor antagonists” (SmithKline Beecham Corporation, priority 1997, published 2001)
